Where two headings read alike, the source gives them in different places. Marks after values point to notes of the source that are not given here.
Legend:
[1] = system: acetylcholine-induced writhing; assay: Acetylcholine-induced writhing in mice; type: in vivo; conditions: Mus musculus
Description: Male mice weighing 22-24 g were maintained in groups of 4 at standard conditions (temperature 22±1° C., humidity: 40-50%, dark-light rhythm: 12/12 h) with food and water freely available.
Abdominal contractions (writhings) were induced by intraperitoneal (i.p.) injection of acetylcholine (ACh) (chloride, 5.5. mg/kg) in a volume of 10 ml/kg. Immediately thereafter, mice were placed in a plastic cage and the number of abdominal contractions (writhes) was counted for 10 min. The total number of abdominal contractions per animal and number of animals with contractions were calculated.
Drugs were prepared daily. All compounds were given orally. Tramadol hydrochloride and flupirtine maleate were administered 30 min before acetylcholine injection.
ED50 values were estimated either by the ratio of animals protected from writhings to the number of animals in groups or by the mean number of writhes in each group of animals. The values were calculated by using linear regression. The statistical analysis of differences between calculated and measured effects was carried out by the Kruscall-Wallis test. Asterisks (*) indicate the significance level p<0.05.

[2] = system: seizures induced by subconvulsive pentetrazol doses; assay: Submaximal pentetrazol-induced seizures in mice; conditions: for Intensity (scored) of seizures / Number of animals with seizures: n = 10
Description: Male mice weighing 22-24 g were used. Animals housed in groups of 4 at standard conditions (temperature 22° C., humidity 40-60%) with food and water freely available. Lights were on from 06.00 a.m. to 06.00 p.m. The experiments were approved by the Animal Health Committee of the University which is responsible for the care and proper use of experimental animals.
Seizures were induced by intraperitoneal administration of pentetrazol at the subconvulsive dose of 30 mg/kg. The latency of the first seizure reaction, the seizure intensity and the number of animals with seizures were calculated for the first 10 min after i.p. injection of pentetrazol. Tramadol (hydrochloride) and flupirtine (maleate) were given intraperitoneally (15 min before pentetrazol administration). Drugs were prepared daily in 0.9% saline.

skeletal muscle tone = assay: Skeletal muscle tone in conscious rats; type: in vivo, Sprague-Dawley rats
Description: The experimental set-up has been described in all details in a former publication (Nickel et al. Arzn. Forsch./Drug Res. 1997; 47; 1081-6). Briefly, the measurement of skeletal muscle tone was done by recording successively the resistance of flexor and extensor muscles which counteracted the forced straightening and bending of the foot in the ankle joint. Pressure changes induced by the movements of the foot were continuously registered. Signals were analyzed on a personal computer. A corresponding computer program calculated the resistance values of flexors and extensors of the foot over 10 min recording periods.
Male Sprague-Dawley rats weighing 200-220 g were used.
Drugs (tramadol hydrochloride, flupirtine maleate) were prepared in physiological saline daily and given intraperitoneally.
The statistical analysis of differences between calculated and measured effects was carried out by the one-way ANOVA. Asterisks (*) indicate the significance level p<0.01.

tramadol-induced emesis = assay: Emetic response in conscious mongrel dogs; type: in vivo; conditions: Tramadol 14 mg/kg i.v., first 60 min, n = 5
Description: Mongrel dogs of both sexes weighing up to 15 kg were used. They were deprived of food overnight but allowed water ad libitum. Test compounds were administered to conscious animals by a slow infusion via the saphenous vein. Emetic responses (retches, strong salivation vomits with output) were monitored 60 min following drug administration (Borison and Wang, 1953). All dogs received 14 mg/kg tramadol i.v. repeatedly with an interval of one week. Positive responder dogs were selected and used in further experiments.

[3] = Tramadol 20 mg/kg i.p., 15 min before pentetrazol 30 mg/kg i.p.
[4] = Tramadol 40 mg/kg i.p., pentetrazol 30 mg/kg i.p.
[5] = Flupirtine 10 mg/kg i.p., pentetrazol 30 mg/kg i.p.
[6] = Flupirtine 20 mg/kg i.p., pentetrazol 30 mg/kg i.p.

With `COc1cccc([C@@]2(O)CCCC[C@H]2CN(C)C)c1` (racemic) [Tramadol, trans-(+/−)-2-[(Dimethylamino)methyl]-1-(3-methoxyphenyl)cyclohexanol] the ED50 ([1]; read-out: oral ED50-values calculated on the basis of animals protected from writhings) was 4.87 mg/kg, the ED50 ([1]; read-out: oral ED50-values calculated on the basis of reduction of number of writhings) was 4.14 mg/kg and the “Intensity (scored) of seizures” value [2, 3] was 1.70*. The “Number of animals with seizures” value [2, 3] was 8*, the “Intensity (scored) of seizures” value [2, 4] was 3.00* and the “Number of animals with seizures” value [2, 4] was 10*. For the same compound, the “effect on acute seizures induced by subconvulsive doses of pentetrazol (in words)” value ([2]; mice, i.p.) was “proconvulsive effects”, the “Changes in muscle tonus (in % compared to placebo)” value (skeletal muscle tone; Tramadol 20 mg/kg i.p.) was “+12%” and the “Changes in muscle tonus (in % compared to placebo)” value (skeletal muscle tone; Tramadol 40 mg/kg i.p.) was “+47%*”. For the same compound, the “Emetic response, % of dogs” value (tramadol-induced emesis) was 100%.
For `CCOC(=O)Nc1ccc(NCc2ccc(F)cc2)nc1N` [Flupirtine], the ED50 ([1]; mice, oral, 30 min before ACh 5.5 mg/kg i.p., read-out: oral ED50-values calculated on the basis of animals protected from writhings) was 27.2 mg/kg, the ED50 ([1]; mice, oral, 30 min before ACh 5.5 mg/kg i.p., read-out: oral ED50-values calculated on the basis of reduction of number of writhings) was 21 mg/kg and the “Intensity (scored) of seizures” value [2, 5] was 0.20. The “Number of animals with seizures” value [2, 5] was 2, the “Intensity (scored) of seizures” value [2, 6] was 0.10 and the “Number of animals with seizures” value [2, 6] was 1. The “proconvulsive activity of tramadol, in the combination (in words)” value ([2]; mice, i.p., flupirtine with tramadol) was “almost completely attenuated” and the “tramadol-induced skeletal muscle rigidity (in words)” value (skeletal muscle tone; Flupirtine 5-10 mg/kg i.p.) was “completely abolished”.

From US7553858B2, “Combination of flupirtine and tramadol” (priority 2003, dated 2009)
